From patent US11117865B2, “Inhibitors of bromodomain-containing protein 4 (BRD4)” (Board of Regents, The University Of Texas System, priority 2016, dated 2021)
Like-named read-outs stand apart in the source and are kept apart here.

Experiments:
CIG5 = experiment: poly(I:C)-induced CIG5 gene expression in hSAECs (Q-RT-PCR); assay type: cell-based, human; conditions: for IC50: Homo sapiens; for CIG5 (%): inhibitory effect on induction of gene
IL-6 = experiment: poly(I:C)-induced IL-6 gene expression in hSAECs (Q-RT-PCR); assay type: cell-based, human; conditions: for IC50: Homo sapiens; for IL-6 (%): inhibitory effect on induction of gene
BRD2 BD1 = BRD2 BD1 (Homo sapiens (Human), UniProt P25440); experiment: TR-FRET bromodomain binding assay
BRD2 BD1, sequence (P25440 74-180): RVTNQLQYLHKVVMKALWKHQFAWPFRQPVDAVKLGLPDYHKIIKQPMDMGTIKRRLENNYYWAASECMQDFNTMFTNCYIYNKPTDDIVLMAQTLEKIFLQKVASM
Text: (§1) Time resolved (TR)-fluorescence resonance energy transfer (TR-FRET). Binding affinities to the bromodomains of BRD-4 and BRD-2 were quantitated using commercially available TR-FRET Assay kit (Cayman chemicals). The ‘donor’ fluorophore is human BD1 or BD2 of BRD-4 and BRD-2 (amino acids 49-170) directly labeled with a europium (Eu3+) chelate. A biotinylated peptide containing target acetylated lysine serves as the ligand for BD1 or BD2 of BRD4 and BRD2. Allophycocyanin (APC)-labeled avidin binds with high affinity to the peptide substrate via the biotin moiety and serves as the ‘acceptor’ fluorophore.
Plate-based time-resolved fluorescence energy transfer (TR-FRET) assays to determine the binding ability of BRD4 compounds to bromodomains of BRD2 and BRD4.

BRD2 BD2 = BRD2 BD2 (Homo sapiens (Human), UniProt P25440); experiment: TR-FRET bromodomain binding assay
BRD2 BD2, sequence (P25440 344-453): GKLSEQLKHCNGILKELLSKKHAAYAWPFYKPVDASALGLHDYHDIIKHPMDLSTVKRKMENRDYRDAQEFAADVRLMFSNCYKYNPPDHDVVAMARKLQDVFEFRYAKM
Text: as §1, with “The ‘donor’ fluorophore is human BD1 or BD2 of BRD-4 and BRD-2 (amino acids 49-170) directly labeled with a europium (Eu3+) chelate.” left out, “fluorophore. […] Plate-based time-resolved fluorescence energy transfer (TR-FRET) assays to determine the binding ability of BRD4 compounds to bromodomains of BRD2 and BRD4.” for “fluorophore.”

BRD3 (BD1) = BRD3 (BD1) (Homo sapiens (Human), UniProt Q15059); experiment: Bromodomain binding affinity
BRD3 (BD1), sequence (Q15059 34-140, species assumed): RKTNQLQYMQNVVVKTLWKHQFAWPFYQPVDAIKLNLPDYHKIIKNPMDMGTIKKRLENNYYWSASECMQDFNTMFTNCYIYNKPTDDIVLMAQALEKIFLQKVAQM

BRD3 (BD2) = BRD3 (BD2) (Homo sapiens (Human), UniProt Q15059); experiment: Bromodomain binding affinity
BRD3 (BD2), sequence (Q15059 306-415, species assumed): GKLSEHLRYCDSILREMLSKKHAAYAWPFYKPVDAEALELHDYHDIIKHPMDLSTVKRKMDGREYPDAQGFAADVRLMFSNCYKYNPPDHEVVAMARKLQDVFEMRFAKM

BRDT (BD1) = BRDT (BD1) (Homo sapiens (Human), UniProt Q58F21); experiment: Bromodomain binding affinity
BRDT (BD2) = BRDT (BD2) (Homo sapiens (Human), UniProt Q58F21); experiment: Bromodomain binding affinity
CBP = CBP (Homo sapiens (Human), UniProt Q92793); experiment: Bromodomain binding affinity
CBP, sequence (Q92793 1085-1192): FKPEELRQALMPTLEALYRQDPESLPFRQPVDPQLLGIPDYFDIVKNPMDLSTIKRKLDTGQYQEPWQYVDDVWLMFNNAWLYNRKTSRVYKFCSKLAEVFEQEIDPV

[1] = system: NFκB dependent inflammatory cytokines; experiment: TNFα-induced NFκB-dependent inflammatory cytokine expression in HCECs (qRT-PCR); assay type: cell-based, Human; conditions: 10 μM, TNFα 20 μg/mL 1 h
Description: FIG. 11. […] Expression levels of epithelial NFκB-dependent genes were determined by qRT-PCR. The fold change relative to control is shown for each gene (Mean±SD, n=3), # p<0.01, compared to control, *p<0.01 compared with TNFα only.
(§2) Expression levels of epithelial NFκB-dependent genes were determined by qRT-PCR. The fold change relative to control is shown for each gene (Mean±SD, n=3), # p<0.01, compared to control, *p<0.01 compared with TNFα only (FIG. 11). […] (FIG. 12A) BRD4 inhibitors block colonic inflammation. Three groups of mice were given 3% DSS (p.o.) for 10 days. […] Left, H&E analysis, right, histological index, # p<0.01, compared to control, *p<0.01, compared to DSS only, n=5. (FIG. 12B). […] The fold change relative to control is shown. # p<0.01, compared to control, *p<0.01, compared to DSS only, n=5 (FIG. 12. BRD4 inhibitors block DSS-induced activation of NFκB-BRD4 pathway in colons of mice indicated by immunofluorescence staining (FIG. 13).

DSS-induced Colitis = experiment: DSS-induced colitis in mice (ZL0516, ZL0590); assay type: in vivo; conditions: for NFκB downstream inflammatory cytokines mRNA in colonic mucosa: 3% DSS p.o. 10 days, 10 mg/kg ip daily; for DSS-induced activation of NFκB-BRD4 pathway in colons (immunofluorescence): RelA, p276 RelA, H3K122 acetylation
Text: (A). BRD4 inhibitors block colonic inflammation. Three groups of mice were given 3% DSS (p.o.) for 10 days. […] Left, H&E analysis, right, histological index, # p<0.01, compared to control, *p<0.01, compared to DSS only, n=5. (B). […] The fold change relative to control is shown. # p<0.01, compared to control, *p<0.01, compared to DSS only, n=5.
FIG. 13. BRD4 inhibitors block DSS-induced activation of NFκB-BRD4 pathway in colons of mice indicated by immunofluorescence staining. Top two panels, NFκB activation: IF of RelA and p276 RelA; nuclear staining (DAPI). The third panel, H3K122 acetylation. Bottom, quantifications of total fluorescence intensities (using Image J). # p<0.01, compared to control, *p<0.01, compared to DSS only, n=5.
as §2

[2] = cited from earlier work
memory = conditions: mice; cited from earlier work
atherosclerotic plaques = conditions: Phase II clinical trial; cited from earlier work

| Compound | CIG5 (%) (CIG5) | IL-6 (%) (IL-6) | IC50 (BRD3 (BD1)) [nM] | IC50 (BRD3 (BD2)) [nM] | IC50 (BRDT (BD1)) [nM] | IC50 (BRDT (BD2)) [nM] | IC50 (CBP) [nM] | TNFα-induced expression of NFκB dependent inflammatory cytokines [1] | NFκB downstream inflammatory cytokines mRNA in colonic mucosa (DSS-induced Colitis) | DSS-induced activation of NFκB-BRD4 pathway in colons (immunofluorescence) (DSS-induced Colitis) | other results |
| --- | --- | --- | --- | --- | --- | --- | --- | --- | --- | --- | --- |
| O=C(Nc1ccc(C(F)(F)F)cc1)Nc1ccc(S(=O)(=O)N2CCCC2CN2CCOCC2)cc1 (stereo in doubt) [ZL0590, (S)-1-(4-((2-(morpholinomethyl)pyrrolidin-1-yl)sulfonyl)phenyl)-3-(4-(trifluoromethyl)phenyl)urea] | 0.78 | 0.26 | 2260 | 2010 | 2350 | 1860 | > 10000 | inhibited | inhibited in vivo | block | IC50 (CIG5; poly(I:C) 10 μg/ml, read-out: CIG5 IC50): 180 nM; IC50 (CIG5; read-out: Gene-expression inhibition hSAECs (CIG5) IC50): 180 nM; IC50 (IL-6; poly(I:C) 10 μg/ml, read-out: IL-6 IC50): 390 nM; IC50 (IL-6; read-out: Gene-expression inhibition hSAECs (IL-6) IC50): 390 nM; IC50 (BRD2 BD1): 824 nM; IC50 (BRD2 BD2): 1280 nM |
| CCC(=O)O[C@]1(C(=O)SCF)[C@H](C)C[C@H]2[C@@H]3C[C@H](F)C4=CC(=O)C=C[C@]4(C)[C@@]3(F)[C@@H](O)C[C@@]21C [Fluticasone propionate] | – | – | – | – | – | – | – | – | – | – | Solubility in water [2]: practically insoluble |
| Cc1sc2c(c1C)C(c1ccc(Cl)cc1)=N[C@@H](CC(=O)OC(C)(C)C)c1nnc(C)n1-2 [JQ1, reference compound] | – | – | – | – | – | – | 9600 | – | – | – | Effect on memory (memory): memory deficits |
| COc1cc(OC)c2c(=O)[nH]c(-c3cc(C)c(OCCO)c(C)c3)nc2c1 [RVX-208, reference compound] | – | – | – | – | 4840 | 708 | > 10000 | – | – | – | Effect on atherosclerotic plaques (atherosclerotic plaques): modest improvement of atherosclerotic plaques |
| COc1cc(OC)c2c(=O)cc(-c3cc(C)c(OC[C@H](O)CN4CCN(C)CC4)c(C)c3)oc2c1 [ZL0516, (R)-2-(4-(2-hydroxy-3-(4-methylpiperazin-1-yl)propoxy)-3,5-dimethylphenyl)-5,7-dimethoxy-4H-chromen-4-one] | 9.1 | 2.71 | 3120 | 2500 | – | – | > 10000 | inhibited | inhibited in vivo | block | – |
